Test results taken from PubChem BioAssay (NCI).
Values joined by “and” are separate entries in the source; they are usually repeats but may differ in a detail not shown here. Equal entries are not always repeated.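 Protocol summary: plate cells (96-well), add compound at 5 concentrations, incubate 48 h, interpolate endpoints linearly. GI50 marks 50% less growth. The concentration for full growth arrest is given as TGI.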

Tests used:
Assay in all cases: NCI anticancer screen, dose series, 48 h
DU-145 prostate = test system: DU-145 prostate
BT-549 breast = test system: BT-549 breast
UO-31 renal = test system: UO-31 renal
CCRF-CEM leukemia = test system: CCRF-CEM leukemia
HCT-116 colon = test system: HCT-116 colon
SN12C renal = test system: SN12C renal
HCC-2998 colon = test system: HCC-2998 colon
SNB-19 CNS = test system: SNB-19 CNS
SK-OV-3 ovarian = test system: SK-OV-3 ovarian
MALME-3M melanoma = test system: MALME-3M melanoma

| Structure (SMILES) | GI50 (DU-145 prostate) | TGI (DU-145 prostate) | GI50 (BT-549 breast) | TGI (BT-549 breast) | GI50 (UO-31 renal) | GI50 (CCRF-CEM leukemia) [µM] | TGI (CCRF-CEM leukemia) | GI50 (HCT-116 colon) | TGI (HCT-116 colon) | GI50 (SN12C renal) [µM] | TGI (SN12C renal) | GI50 (HCC-2998 colon) [µM] | TGI (HCC-2998 colon) [µM] | GI50 (SNB-19 CNS) | TGI (SNB-19 CNS) | GI50 (SK-OV-3 ovarian) | TGI (SK-OV-3 ovarian) | GI50 (MALME-3M melanoma) [µM] | TGI (MALME-3M melanoma) | TGI (UO-31 renal) |
| --- | --- | --- | --- | --- | --- | --- | --- | --- | --- | --- | --- | --- | --- | --- | --- | --- | --- | --- | --- | --- |
| CC(C)c1[nH]nc2c(NCc3ccc(-c4ccccn4)cc3)nc(SCCN)nc12 | 0.0389 µM and 0.0416 µM | 11.8 µM | 0.0322 µM and 0.067 µM | 0.168 µM and 0.642 µM | 0.186 µM and 0.402 µM | 0.00978 | 15.1 µM | 0.0233 µM and 0.0196 µM | 10.6 µM | 0.0238 | 0.185 µM | 0.025 | 1.08 | 0.0173 µM and 0.0142 µM | 11.8 µM | 0.0433 µM and 0.0276 µM | 11.4 µM | 0.016 | 0.0598 µM |  |
| O=C(NCc1ccco1)C1CCN(S(=O)(=O)c2ccc(Cl)cc2)CC1 | > 100 µM | > 100 µM | > 100 µM | > 100 µM | 86.6 µM | 83.8 | > 100 µM | 59.8 µM | > 100 µM | > 100 | > 100 µM | > 100 | > 100 | > 100 µM | > 100 µM | > 100 µM | > 100 µM | > 100 | > 100 µM | > 100 µM |
| CN(C)CCNC(=O)c1cccc2c1Oc1cccc([N+](=O)[O-])c1O2 |  | 31.5 µM |  | 33.6 µM |  |  | 89.8 µM |  | 30.6 µM |  | > 100 µM |  | 56.1 |  | > 100 µM |  | 37.4 µM |  | 28.1 µM | 32.5 µM |
| COC(=O)c1c2c(c(C)[n+]([O-])c1C)C(=O)C(NCc1ccc(F)cc1)=CC2=O | 2.11 µM | 4.76 µM | 1.73 µM | 3.78 µM | 1.67 µM | 2.34 | 8.36 µM | 0.957 µM | 6.28 µM | 1.17 | 2.62 µM | 1.79 | 4.57 | 2.1 µM | 5.2 µM | 2.92 µM | 9.11 µM | 0.187 | 0.493 µM | 3.77 µM |
| Oc1ccc(Cl)cc1Sc1cc(Cl)ccc1O | 3.83 µM | 30.5 µM and 13.7 µM | 3 µM | 33.6 µM and 9.29 µM | 2.24 µM | 2.59 | 55 µM and 12.8 µM | 2.79 µM | 19.7 µM and 7.21 µM | 3.16 | 27.4 µM and 10.4 µM | 3.92 | 14.8 | 4.19 µM | 57.1 µM and 16 µM | 4.86 µM | 43.5 µM and 19.1 µM | 2.41 | 20.3 µM and 6.81 µM | 20.1 µM and 6.24 µM |
| C=C1C(=O)O[C@@H]2CC(CO)=C([C@@H](C)CCCO)[C@@H](OC(=O)/C(C)=C\C)[C@H]12 |  | 27.7 µM |  | > 90.6 µM |  |  | 10 µM |  | 26.5 µM |  | 43.5 µM |  | 29.6 |  | > 54.6 µM |  | > 100 µM |  | 32.5 µM | > 65 µM |
